Here are results for 3 compounds from patent US20240252508A1, “Novel glucose uptake inhibitors for use in the treatment of cancer” (NOVELYEAST BV, priority 2021, published 2024).

pIC50, pKi: −log10 of the molar value. “Also recorded” adds a separate entry of the source. Where two headings read alike, the source gives them in different places.

In series [1] the test system is tps1Δ cells. Put plainly: Growth rescue of tps1Δ strain on glucose (growth curves, 2% galactose medium). The format is cell-based, S. cerevisiae. The method, boiled down: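 tps1Δ yeast pregrown in Complete Synthetic medium with 2% galactose, washed, resuspended to OD 0.1; compounds added 10 min before glucose. Growth followed as OD595 every 30 min at 30 °C in at least three technical replicates.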

Series [2] has as its system A549 lung adenocarcinoma cells. Briefly: A549 cell proliferation / growth inhibition. The format is cell-based, human. The note with it: 1 mM glucose; for Potency in reducing maximal growth rate of A549 cells: 6.25-50 μM. The method, boiled down: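 A549 growth screened in RPMI with 1 mM glucose, compounds at 50 μM; cell number from counts of Hoechst-stained nuclei after 3 days. Growth curves also followed by IncuCyte phase-contrast confluency over 3–5 days (1000–1500 cells/well), DMSO ≤0.1%, ≥4 technical repeats.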

Series [3] concerns tps1Δ cells. Put plainly: Glu6P and Fru1,6bisP levels after glucose addition to tps1Δ cells. The format is cell-based, S. cerevisiae. The procedure:
For measuring metabolite levels, cells were typically grown in Complete Synthetic medium. […] However, when comparing the effect of Warbicins on metabolite profiles of wild type and tps1Δ strains (FIG. 2f-k), cells were grown on 2% galactose. When grown to exponential phase, cells were harvested by centrifugation and washed twice with ice-cold 25 mM 2-(N-Morpholino)ethanesulfonic acid (MES) buffer, pH 6. Cells were suspended in Complete Synthetic medium without sugar at a concentration of 75 mg (wet weight)/mL followed by a temperature equilibration at 30° C. in a shaking water bath for 30 min. Depending on the experiment, a final concentration of 2.5 mM, 7.5 mM or 10 mM glucose was added to the cell suspension. Compounds were added 10 min prior to glucose addition. […]
Through endpoint measurement of the absorbance of NADH or NADPH at 340 nm, metabolite concentrations were calculated by applying Lambert's Law. Different metabolites were measured through the use of coupled enzymatic reactions. […] Depending on the measured metabolite, different co-factors and auxiliary enzymes were added. For measuring glucose-6-phosphate, 0.8 mg/ml NADP^+ was added to the assay buffer after which the baseline absorbance was measured. […] After stabilization of the OD340 spectra, ATP concentrations were measured by additionally adding 10 mM MgCl2 and 0.5 mM glucose to the assay buffer. […]

Series [4] relates to A549 lung adenocarcinoma cells. Briefly: 2-deoxyglucose uptake in A549 cells. The note with it: for Type of inhibition of 2-deoxyglucose uptake in A549 cells: Lineweaver-Burk plot analysis. The format is cell-based, human. The procedure: Zero-trans glucose uptake in A549 cells was approximated by measuring the uptake of [1,2-^3H]2-deoxyglucose. For this purpose, A549 cells were pregrown in RPMI medium containing 10 mM glucose in a 24-well plate to a cell density of around 100,000 cells/well. Prior to adding radioactive label, cells were gently washed twice in Krebs-Ringer-HEPES buffer (50 mM HEPES pH 7.4, 137 mM NaCl, 4.7 mM KCl, […], 1.3 mM MgSO4 and 0.1% w/v BSA) at 30° C. to remove any residual sugar. RPMI medium without sugar containing the compound intended for treatment, was added to the cells for 15 min at 37° C. to allow adequate interaction of the cells with the compound.
The uptake measurement was initiated by adding an equal volume of medium containing radiolabeled 2DG. After 3-4 min, medium was aspirated and cells were gently washed three times with ice-cold Krebs-Ringer-HEPES buffer. Cells were lysed by adding 200 μL of ice-cold 0.1 M NaOH solution and incubating the plate for 10 min at 37° C. Cell lysates were transferred to scintillation vials for subsequent scintillation counting. For blank measurements, cells were incubated with 50 μM Cytochalasin B prior to the uptake measurement.

The subject of series [5] is MCF10A breast epithelia cell line transformed with the H-RAS^V12 allele. Put plainly: MCF10A H-RAS^V12 growth and apoptosis (IncuCyte). It counts as cell-based, human. To be noted: 25 μM. The procedure: For both adherent A549 and MCF10Δ H-RAS^V12 cell lines, growth curves were established using the IncuCyte® ZOOM technology. By collecting phase contrast images, the IncuCyte® software provides a calculated confluency percentage from which growth curves can be deducted.
Cells were seeded at a density of 1000-1500 cells/well in a Nunc-Edge™ 96-well plate (Thermo Fisher Scientific) and growth was typically measured over 3 to 5 days. For the measurement of apoptosis induction using the MCF10Δ H-RAS^V12 cell line, the IncuCyte® Caspase-3/7 green dye was added to the medium in the recommended concentration at the beginning of the growth curve experiment. Apoptosis was detected by taking fluorescent images by excitation at 488 nm followed by IncuCyte® software analysis. Cell growth of the KMS-12-PE multiple myeloma cell line, which grows in suspension, was measured by manual cell counting. Cells were initially seeded at a density of 10^4 cells/well and incubated for 4 days after which the cell number was counted. For all cell lines, the same medium used for pregrowth was also used for the growth curve experiment, albeit with different glucose concentrations depending on the experimental design. With compound administration, the final concentration of DMSO never exceeded 0.1%. Typically, at least four technical repeats were included per condition.

Series [6] relates to U266 multiple myeloma cell line. Briefly: U266 proliferation (cell count). The format is cell-based, human. The note with it: 25 μM, 4 days, RPMI with 1 mM glucose. The procedure: a. Cell count of the U266 multiple myeloma cell line after 4 days of growth on RPMI medium with 1 mM glucose. Cells were treated with either DMSO or 25 μM of WBC-A, -15C, -4C or -11C. Glucose consumption (b.) or lactate secretion (c.) rates are shown for U266 cells incubated in RPMI medium supplemented with 1 mM glucose for 8 h.

The subject of series [7] is A549 lung adenocarcinoma cells. Put plainly: Steady-state glucose consumption and lactate production in A549 cells. It counts as cell-based, human. The note with it: 25 μM, 1 mM glucose, 8 h. The procedure: (§1) The influence of WBC compounds on the steady-state glucose consumption rate was studied in the A549 adenocarcinoma and KMS-12-PE multiple myeloma cell lines. As such, different parameters needed to be optimized depending on whether cells were adherent or in suspension. As such, A549 cells were incubated at 125,000 cells/well in a 24-well plate in 300 μL RPMI medium for 8 h. For the KMS-12-PE cell line, 100,000 cells/well were incubated in 100 μL RPMI medium in a 96-well plate for 8 h. Medium was collected, spun down and HPLC-analyzed for measuring glucose and lactate levels. Metabolite levels were corrected for cell number, which always varied little over the span of 8 h. For every condition, at least 4 technical repeats were included.

For series [8], the system named is KMS-12-PE multiple myeloma cells. Briefly: Steady-state glucose consumption and lactate production in KMS-12-PE cells. To be noted: 25 μM, 1 mM glucose, 8 h. The format is cell-based, human. The procedure: as §1
Series [9] in a line: Warbicin toxicity and tolerability in mice. The format is in vivo, NMRI-nu mice. The note with it: for Loss in body weight over 20 days: daily i.p. 5, 10 and 20 mg/kg, nude mice; for AST/ALT ratio vs vehicle: sera after 20 days, 5, 10, 20 mg/kg i.p.; for Blood glucose level vs vehicle: sera post mortem after 20 days, 5, 10, 20 mg/kg i.p. The procedure:
Warbicin in vivo toxicity and tolerability was examined by subjecting NMRI-nu mice to daily intraperitoneal injection of either WBC-A, WBC-15C, WBC-4C or WBC-11C. Compounds were dosed at either 5 mg/kg, 10 mg/kg or 20 mg/kg over a period of 20 days. Three mice were used per condition. To evaluate toxicity, change in body weight was registered daily. As a humane endpoint, mice that lost more than 20% of their original body weight were prematurely sacrificed. An optimal dissolve strategy was developed to administer WBC compounds by intraperitoneal injection. Due to their considerable hydrophobicity, compounds were dissolved in a sterilized 1×PBS, 5% DMSO and 5% Tween-80 solution. For WBC-A, -15C and -4C, this gives an initial clear solution that gradually changes over time into a homogenous suspension which can still be administered in a reproducible way. For WBC-11C it immediately results in a homogenous suspension.

The subject of series [10] is tps1Δ cells. Briefly: Zero-trans glucose uptake in tps1Δ yeast cells. The format is cell-based, S. cerevisiae. The note with it: 2.5 mM glucose, tps1Δ cells. The procedure:
Zero-trans uptake of radioactively labeled [U-^14C]glucose, [U-^14C]fructose or [U-^14C]galactose by S. cerevisiae cells was determined in accordance with previous studies^44,66. Cells were grown on different carbon sources depending on the experiment. For measuring glucose uptake activity in the tps1Δ and tps1Δ hxtA strains (FIG. 1b,c), cells were grown on YP medium containing 3% glycerol (measurement of 10s). Typically, for compound characterization and kinetic studies in wild type and tps1Δ strains, cells were (pre)grown on Complete Synthetic medium supplemented with 2% galactose (measurement of 10s). In the experiments on the influence of hexokinase activity on the sugar uptake rate, the measurement duration was shortened to 5s and cells were always grown on YP medium containing 3% glycerol and 2% ethanol. After harvesting, cells were washed twice with ice-cold 25 mM MES-buffer pH 6, and resuspended in their respective medium without sugar to a final concentration of 45 mg (wet weight)/mL. The amount of added tracer was estimated to give a response close to at least 1000 counts per min in order to adequately counter background noise. Cells were first preincubated for 10 min at 30° C. with the compound to acclimate the cells to the temperature and to allow adequate interaction with the compound prior to uptake. Next, hexose sugar was mixed with the cell suspension, which was then incubated for 5 or 10 s, depending on the experiment, after which the cells were rapidly filtered over a glass microfiber filter (Whatman GF/C) and washed three times with ice-cold dH2O. The loaded filter was transferred to a scintillation vial containing 3 mL liquid scintillation cocktail (Ultima-Flo M, Perkin Elmer) and counted using the Hidex 300 SL. Three blank measurements per strain were typically included to account for background signal, for which the cells were first quenched before adding the radioactive label.

In the case of `Cc1nc(SCC(N)=O)c2c3c(sc2n1)CCCC3` [55C], the “Rescue of the tps1Δ strain on 2.5 mM glucose at 100 μM” value in series [1] (100 μM compound, 2.5 mM glucose) was “No”. The “Rescue of tps1Δ cells on 2.5 mM glucose” value in [1] (100 μM, 2% galactose + 2.5 mM glucose) is “highly active”. For the same compound, the “Selected from primary screen for growth inhibition of A549 cells at 50 μM” value in [2] (50 μM compound) is reported as “No”. Further, in series [3], the “Glu6P and Fru1,6bisP hyperaccumulation after addition of 2.5 mM glucose” value was “did not prevent hyperaccumulation of sugar phosphates”.
Consider `Cc1nc(NCC(=O)NCc2ccco2)c2c(-c3ccccc3)csc2n1` [WBC-4C], for which, in [2], the “Potency in reducing maximal growth rate of A549 cells” value is “intermediate potency”. Moreover, the pKi in [4] (Dixon plot analysis, read-out: Ki (=K′i), 2-deoxyglucose uptake in A549 cells) was 4.57. Moreover, the “Type of inhibition of 2-deoxyglucose uptake in A549 cells” value in [4] is reported as “noncompetitive”. Besides, the “Proliferation of MCF10A H-RAS^V12 cell line on 1 mM glucose” value in series [5] is given as “highest potency”. Also, the “Proliferation of U266 cell line” value in [6] was “inhibit proliferation”. The “Glucose consumption and lactate production in A549 cells” value in series [7] was “inhibited”. Also, the “Glucose consumption and lactate production in KMS-12-PE cells” value in series [8] is “inhibited”. Further, in [9] (daily i.p. 20 mg/kg), the “Weight loss of one single mouse sacrificed at day 19” value is on record as 20%. Besides, in series [9] (daily i.p. 5, 10, 20 mg/kg, 20 days), the “Other abnormalities at autopsy” value is reported as “No other abnormalities”. In [9], the “Loss in body weight over 20 days” value is reported as “no significant loss in body weight; also recorded: No significant difference”, the “AST/ALT ratio vs vehicle” value is reported as “No significant difference” and the “Blood glucose level vs vehicle” value is reported as “No significant difference”.
One may read the pIC50 as −log10 of the IC50, conventionally taken in molar units. Lower therefore signals a large IC50. Consider `Cc1nc(SCC(=O)c2ccc3c(c2)NC(=O)CO3)c2c(-c3cccs3)csc2n1` [WBC-11C], for which the “Minimal rescue concentration for growth of tps1Δ cells on 2.5 mM glucose” value in series [1] (2.5 mM glucose) was 50 µM. In addition, the pIC50 in series [10] is 4.36. For the same compound, in series [2], the “Potency in reducing maximal growth rate of A549 cells” value is on record as “most”. Also, the pKi in [4] (Cornish-Bowden plot analysis, printed K′, read-out: K′i, 2-deoxyglucose uptake in A549 cells) is 5.12. Besides, in series [4], the “Type of inhibition of 2-deoxyglucose uptake in A549 cells” value was “uncompetitive”. Further, in series [5], the “Proliferation of MCF10A H-RAS^V12 cell line on 1 mM glucose” value is “highest potency”. Further, the “Induction of apoptosis (caspase 3/7 dye) in MCF10A H-RAS^V12 cells” value in series [5] (1 mM glucose) is “strong induction of apoptosis”. Moreover, the “Proliferation of U266 cell line” value in series [6] was “inhibit proliferation”. In addition, the “Glucose consumption and lactate production in A549 cells” value in series [7] is given as “inhibited”. For the same compound, the “Glucose consumption and lactate production in KMS-12-PE cells” value in [8] was “inhibited”. For the same compound, in series [9], the “Loss in body weight over 20 days” value is on record as “no significant loss in body weight; also recorded: No significant difference”, the “AST/ALT ratio vs vehicle” value is reported as “No significant difference” and the “Blood glucose level vs vehicle” value is reported as “No significant difference”. Besides, in [9] (daily i.p. 10 and 5 mg/kg), the “Body weight drop at 10 and 5 mg/kg around day 5 and 11” value is listed as “small transient drop”. In series [9] (daily i.p. 20 and 10 mg/kg, not observed at lower concentrations), the “Toxic effects in organs at autopsy, 20 and 10 mg/kg” value was “toxic effects were seen in the liver and other organs”.
